Measurements as given in patent US9540343B2 (Gilead Sciences, Inc., priority 2011, dated 2017).

Key:
HIV-IIIb = test: Test A: Antiviral assay in MT4 cells; format: cell-based, HIV-1; settings: MT-4 cells infected with HIV-IIIb, 5 days, CellTiter-Glo; for inhibition at 2 µM: Human immunodeficiency virus 1, IIIB, MT4, 120 h, read-out: % inhibition at 2 μM, percent inhibition of virus-induced cell killing, from dose response curve at 2 uM drug
in vitro = settings: human, uninfected MT-4 cells, CC50 (nM), same protocol as Test A, CellTiter-Glo
Protocol: For the antiviral assay, 40 μL of 1× test concentration of 3-fold serially diluted compound in culture medium with 10% FBS was added to each well of a 384-well plate (10 concentrations) in quadruplicate. MT-4 cells were next mixed with HIV-IIIb at an m.o.i of 0.003 for 1 hour, after which time 35 μL of virus/cell mixture (2000 cells) was immediately added to each well containing 40 μL of diluted compound. The plates were then incubated at 37° C. for 5 days. After 5 days of incubation, 25 μl of 2× concentrated CellTiter-Glo™ Reagent (catalog #G7571, Promega Biosciences, Inc., Madison, Wis.) was added to each well containing MT-4 cells. Cell lysis was carried out by incubating at room temperature for 10 min and then chemiluminescence was read.
Test B: Cytotoxicity Assay
Compound cytotoxicity and the corresponding CC50 values was determined using the same protocol as described in the antiviral assay (Test A) except that uninfected cells were used.

For `NC(=O)c1cc(-c2cccnc2[C@H](Cc2cc(F)cc(F)c2)NC(=O)Cn2nc(C(F)(F)F)c3c2C(=O)CCC3(F)F)ccc1F` [Example 414], which inhibition at 2 µM (HIV-IIIb) is on record?
Its inhibition at 2 µM is 39%.

And the CC50 at 5 days (in vitro)?
The CC50 at 5 days was 23400 nM.

Which inhibition at 2 µM (HIV-IIIb) does the source give for `NC(=O)c1cccc(-c2cccnc2[C@H](Cc2cc(F)cc(F)c2)NC(=O)Cn2cnc3ccccc32)c1` [Example 418, (S)-3-(2-(1-(2-(1H-benzo[d]imidazol-1-yl)acetamido)-2-(3,5-difluorophenyl)ethyl)pyridin-3-yl)benzamide] here?
The inhibition at 2 µM was 19%.

What about the CC50 at 5 days (in vitro) of the same molecule?
Its CC50 at 5 days is > 53200 nM.

What does the source list for `CC(=O)c1cn(CC(=O)N[C@@H](Cc2cc(F)cc(F)c2)c2ncccc2-c2ccc(F)c(C(N)=O)c2)nc1C(F)(F)F` [Example 389B, (S)-5-(2-(1-(2-(4-acetyl-3-(trifluoromethyl)-1H-pyrazol-1-yl)acetamido)-2-(3,5-difluorophenyl)ethyl)pyridin-3-yl)-2-fluorobenzamide]?
inhibition at 2 µM (HIV-IIIb): 2%; CC50 at 5 days (in vitro): > 53200 nM

For `NC(=O)c1cccc(-c2cccnc2[C@H](Cc2cc(F)cc(F)c2)NC(=O)Cc2c[nH]c3cc(C4CC4)c(=O)[nH]c23)c1` [Example 338C, (S)-3-(2-(1-(2-(6-cyclopropyl-5-oxo-4,5-dihydro-1H-pyrrolo[3,2-b]pyridin-3-yl)acetamido)-2-(3,5-difluorophenyl)ethyl)pyridin-3-yl)benzamide], which inhibition at 2 µM (HIV-IIIb) is on record?
Its inhibition at 2 µM is 35%.

What about the CC50 at 5 days (in vitro) of the same molecule?
The CC50 at 5 days was > 53000 nM.

With `NC(=O)c1cc(-c2cccnc2[C@H](Cc2cc(F)cc(F)c2)NC(=O)Cn2nc(C(F)(F)F)c3c2C2CC2C3=O)ccc1F` (stereo partly drawn) [Example 465B, 5-(2-((1S)-2-(3,5-difluorophenyl)-1-(2-(4-oxo-3-(trifluoromethyl)-4,4-a,5,5a-tetrahydro-1H-cyclopropa[4,5]cyclopenta[1,2-c]pyrazol-1-yl)acetamido)ethyl)pyridin-3-yl)-2-fluorobenzamide] as the molecule, how does the inhibition at 2 µM (HIV-IIIb) read?
Its inhibition at 2 µM is 3%.

And the CC50 at 5 days (in vitro)?
The CC50 at 5 days was > 53200 nM.

With `NC(=O)c1cc(-c2cccnc2[C@H](Cc2cc(F)cc(F)c2)NC(=O)Cn2nc3c(c2C(F)(F)F)COC3)ccc1F` [Example 203D, (S)-5-(2-(2-(3,5-difluorophenyl)-1-(2-(3-(trifluoromethyl)-4,6-dihydro-2H-furo[3,4-c]pyrazol-2-yl)acetamido)ethyl)pyridin-3-yl)-2-fluorobenzamide] as the molecule, how does the inhibition at 2 µM (HIV-IIIb) read?
The inhibition at 2 µM was 0%.

And the CC50 at 5 days (in vitro)?
Its CC50 at 5 days is > 53200 nM.

For `NC(=O)c1cc(-c2cccnc2[C@H](Cc2cc(F)cc(F)c2)NC(=O)C2CCCN2C(=O)c2ccccc2)ccc1F` (stereo partly drawn) [Example 126, 1-benzoyl-N—((S)-1-(3-(3-carbamoyl-4-fluorophenyl)pyridin-2-yl)-2-(3,5-difluorophenyl)ethyl)pyrrolidine-2-carboxamide], which inhibition at 2 µM (HIV-IIIb) is on record?
The inhibition at 2 µM was 7%.

And the CC50 at 5 days (in vitro)?
The CC50 at 5 days was > 53000 nM.

What does the source list for `NC(=O)c1cccc(-c2cccnc2[C@H](Cc2cc(F)cc(F)c2)NC(=O)Cc2c[nH]c3ccc(C(F)(F)F)cc23)c1` [Example 596, (S)-3-(2-(2-(3,5-difluorophenyl)-1-(2-(5-(trifluoromethyl)-1H-indol-3-yl)acetamido)ethyl)pyridin-3-yl)benzamide]?
inhibition at 2 µM (HIV-IIIb): 96%; CC50 at 5 days (in vitro): 10900 nM

For `CCn1c(=O)c2c(n1CC(=O)N[C@@H](Cc1cc(F)cc(F)c1)c1ncccc1-c1ccc(F)c(C(N)=O)c1)CCCC2` [Example 170C, (S)-5-(2-(2-(3,5-difluorophenyl)-1-(2-(2-ethyl-3-oxo-2,3,4,5,6,7-hexahydro-1H-indazol-1-yl)acetamido)ethyl)pyridin-3-yl)-2-fluorobenzamide], which inhibition at 2 µM (HIV-IIIb) is on record?
The inhibition at 2 µM was 22%.

And the CC50 at 5 days (in vitro)?
Its CC50 at 5 days is > 53200 nM.

With `CCC(C(=O)N[C@@H](Cc1cc(F)cc(F)c1)c1ncccc1-c1ccc(F)c(C(N)=O)c1)n1nc(C(F)(F)F)c2c1CCCC2` (stereo partly drawn) [Example 504E, 5-(2-((1S)-2-(3,5-difluorophenyl)-1-(2-(3-(trifluoromethyl)-4,5,6,7-tetrahydro-1H-indazol-1-yl)butanamido)ethyl)pyridin-3-yl)-2-fluorobenzamide] as the molecule, how does the “% inhibition at 2 μM” value (HIV-IIIb; percent inhibition of virus-induced cell killing, from dose response curve at 2 uM drug) read?
The value was 142%.

What about the CC50 at 5 days (in vitro) of the same molecule?
The CC50 at 5 days was 12800 nM.

With `NC(=O)c1cc(-c2cccnc2[C@H](Cc2cc(F)cc(F)c2)NC(=O)Cn2nc(C(F)(F)F)c3c2CCNC3)ccc1F` [Example 303, (S)-5-(2-(2-(3,5-difluorophenyl)-1-(2-(3-(trifluoromethyl)-4,5,6,7-tetrahydro-1H-pyrazolo[4,3-c]pyridin-1-yl)acetamido)ethyl)pyridin-3-yl)-2-fluorobenzamide] as the molecule, how does the inhibition at 2 µM (HIV-IIIb) read?
The inhibition at 2 µM was 14%.

What about the CC50 at 5 days (in vitro) of the same molecule?
Its CC50 at 5 days is 35500 nM.

What does the source list for `O=C(Cc1n[nH]c2ccccc12)NC(Cc1cc(F)cc(F)c1)c1nccnc1-c1ccc(Cl)cc1` (stereo not drawn) [Example 447, N-(1-(3-(4-chlorophenyl)pyrazin-2-yl)-2-(3,5-difluorophenyl)ethyl)-2-(1H-indazol-3-yl)acetamide]?
inhibition at 2 µM (HIV-IIIb): 0%; CC50 at 5 days (in vitro): 13000 nM

Which inhibition at 2 µM (HIV-IIIb) does the source give for `NC(=O)c1cccc(-c2cccnc2[C@H](Cc2cc(F)cc(F)c2)NC(=O)Cc2cccc(Cl)c2)c1` [Example 510, (S)-3-(2-(1-(2-(3-chlorophenyl)acetamido)-2-(3,5-difluorophenyl)ethyl)pyridin-3-yl)benzamide] here?
The inhibition at 2 µM was 3%.

What about the CC50 at 5 days (in vitro) of the same molecule?
Its CC50 at 5 days is 35900 nM.

For `NC(=O)c1cc(-c2cccnc2[C@H](Cc2cc(F)cc(F)c2)NC(=O)Cn2nc(C(F)F)c3c2C2CC2CC3(F)F)ccc1F` (stereo partly drawn) [Example 304C, 5-(2-((1S)-1-(2-(3-(difluoromethyl)-4,4-difluoro-5,5a,6,6a-tetrahydrocyclopropa[g]indazol-1(4H)-yl)acetamido)-2-(3,5-difluorophenyl)ethyl)pyridin-3-yl)-2-fluorobenzamide], which inhibition at 2 µM (HIV-IIIb) is on record?
Its inhibition at 2 µM is 94%.

What about the CC50 at 5 days (in vitro) of the same molecule?
The CC50 at 5 days was 1700 nM.

Which inhibition at 2 µM (HIV-IIIb) does the source give for `CCOC(=O)c1nn(CC(=O)N[C@@H](Cc2cc(F)cc(F)c2)c2ncccc2-c2ccc(F)c(C(N)=O)c2)c2c1CC1CC2C1` [Example 81D, (S)-5-(2-(2-(3,5-difluorophenyl)-1-(2-(4,5,6,7-tetrahydro-3-carboethoxy-5,7-(methano)indazol-1-yl)acetamido)ethyl)pyridin-3-yl)-2-fluorobenzamide] here?
The inhibition at 2 µM was 75%.

And the CC50 at 5 days (in vitro)?
The CC50 at 5 days was 16700 nM.

Which inhibition at 2 µM (HIV-IIIb) does the source give for `NC(=O)c1cc(-c2cccnc2[C@H](Cc2cc(F)cc(F)c2)NC(=O)COc2ccccc2)ccc1F` [Example 164, (S)-5-(2-(2-(3,5-difluorophenyl)-1-(2-phenoxyacetamido)ethyl)pyridin-3-yl)-2-fluorobenzamide] here?
The inhibition at 2 µM was 2%.

What about the CC50 at 5 days (in vitro) of the same molecule?
Its CC50 at 5 days is 29900 nM.

Which results are given for `NC(=O)c1cc(-c2cccnc2[C@H](Cc2cc(F)cc(F)c2)NC(=O)Cn2nc(OCc3ncccn3)c3c2CCCC3)ccc1F` [Example 142C, (S)-5-(2-(2-(3,5-difluorophenyl)-1-(2-(3-(pyrimidin-2-ylmethoxy)-4,5,6,7-tetrahydro-1H-indazol-1-yl)acetamido)ethyl)pyridin-3-yl)-2-fluorobenzamide]?
inhibition at 2 µM (HIV-IIIb): 23%; CC50 at 5 days (in vitro): > 53200 nM

With `NC(=O)c1cccc(-c2cccnc2[C@H](Cc2cc(F)cc(F)c2)NC(=O)Cn2c(C(F)(F)F)nc3ccc(OC(F)(F)F)cc32)c1` [Example 315, (S)-3-(2-(2-(3,5-difluorophenyl)-1-(2-(6-(trifluoromethoxy)-2-(trifluoromethyl)-1H-benzo[d]imidazol-1-yl)acetamido)ethyl)pyridin-3-yl)benzamide] as the molecule, how does the inhibition at 2 µM (HIV-IIIb) read?
Its inhibition at 2 µM is 0%.

And the CC50 at 5 days (in vitro)?
The CC50 at 5 days was 47200 nM.

Which results are given for `COC1CN(C(=O)c2cc(C(C)C)n(CC(=O)N[C@@H](Cc3cc(F)cc(F)c3)c3ncccc3-c3ccc(F)c(C(N)=O)c3)n2)C1` [Example 576B, (S)-5-(2-(2-(3,5-difluorophenyl)-1-(2-(5-isopropyl-3-(3-methoxyazetidine-1-carbonyl)-1H-pyrazol-1-yl)acetamido)ethyl)pyridin-3-yl)-2-fluorobenzamide]?
inhibition at 2 µM (HIV-IIIb): 2%; CC50 at 5 days (in vitro): > 53200 nM

Which inhibition at 2 µM (HIV-IIIb) does the source give for `O=C(Cn1nc(C(F)(F)F)c2c1C1CC1CC2)N[C@@H](Cc1cc(F)cc(F)c1)c1ncccc1-c1cnc2[nH]ccc2c1` (stereo partly drawn) [Example 379, N—((S)-1-(3-(1H-pyrrolo[2,3-b]pyridin-5-yl)pyridin-2-yl)-2-(3,5-difluorophenyl)ethyl)-2-(3-(trifluoromethyl)-5,5a,6,6a-tetrahydrocyclopropa[g]indazol-1(4H)-yl)acetamide] here?
The inhibition at 2 µM was 112%.

And the CC50 at 5 days (in vitro)?
Its CC50 at 5 days is 9240 nM.

Which results are given for `Cc1ccccc1-c1ccnc(C(Cc2ccccc2)NC(=O)Cn2nc(C(F)(F)F)c3c2CCCC3)n1` (stereo not drawn) [Example 10, N-(2-phenyl-1-(4-o-tolylpyrimidin-2-yl)ethyl)-2-(3-(trifluoromethyl)-4,5,6,7-tetrahydro-1H-indazol-1-yl)acetamide]?
inhibition at 2 µM (HIV-IIIb): 0%; CC50 at 5 days (in vitro): 13000 nM

Which inhibition at 2 µM (HIV-IIIb) does the source give for `Cc1cc2[nH]cc(CC(=O)N[C@@H](Cc3cc(F)cc(F)c3)c3ncccc3-c3cccc(C(N)=O)c3)c2cc1OCc1ccccc1` [Example 536I, (S)-3-(2-(1-(2-(5-(benzyloxy)-6-methyl-1H-indol-3-yl)acetamido)-2-(3,5-difluorophenyl)ethyl)pyridin-3-yl)benzamide] here?
Its inhibition at 2 µM is 12%.

What about the CC50 at 5 days (in vitro) of the same molecule?
The CC50 at 5 days was 8600 nM.

With `NC(=O)c1cc(-c2cccnc2[C@H](Cc2cc(F)cc(F)c2)NC(=O)C2(c3ccccc3)CC2)ccc1F` [Example 477, (S)-5-(2-(2-(3,5-difluorophenyl)-1-(1-phenylcyclopropanecarboxamido)ethyl)pyridin-3-yl)-2-fluorobenzamide] as the molecule, how does the inhibition at 2 µM (HIV-IIIb) read?
The inhibition at 2 µM was 0%.

And the CC50 at 5 days (in vitro)?
The CC50 at 5 days was 21400 nM.

With `CCC(C(=O)N[C@@H](Cc1cc(F)cc(F)c1)c1ncccc1-c1ccc(F)c(C(N)=O)c1)n1nc(C(F)F)cc1C(F)F` (single isomer, unassigned) [Example 483D] as the molecule, how does the inhibition at 2 µM (HIV-IIIb) read?
Its inhibition at 2 µM is 19%.

What about the CC50 at 5 days (in vitro) of the same molecule?
Its CC50 at 5 days is 26200 nM.
